# Source: BindingDB's records for doi:10.1021/jm970459c (Cambridge Neuroscience, 1998)
# Where a name gives a salt, the structure may show the parent alone.
# Biological target: Sigma receptor (Cavia porcellus)
# Assay: Binding assay for the sigma receptor sites is performed by utilizing [3H]N,N-di-o-tolylguanidine ([3H]DTG) and guinea pig brain membrane suspensions
row,IC50 [nM],Structure (SMILES)
1,44,CCc1cccc(N(C)C(N)=Nc2cccc(Cl)c2)c1 [N'-(3-Chloro-phenyl)-N-(3-ethyl-phenyl)-N-methyl-guanidine; hydrochloride]
2,261,CCc1cccc(N(C)C(N)=Nc2cc(CC)cc(OC(F)(F)F)c2Br)c1 [N'-(2-Bromo-5-ethyl-3-trifluoromethoxy-phenyl)-N-(3-ethyl-phenyl)-N-methyl-guanidine; hydrochloride]
3,40,CCc1cccc(N(C)C(N)=Nc2cccc(Br)c2)c1 [N'-(3-Bromo-phenyl)-N-(3-ethyl-phenyl)-N-methyl-guanidine; hydrochloride]
4,97,"CCc1cccc(N(C)C(N)=Nc2cccc(Cl)c2Cl)c1 [N'-(2,3-Dichloro-phenyl)-N-(3-ethyl-phenyl)-N-methyl-guanidine; hydrochloride]"
5,29,"CCc1cccc(N(C)C(N)=Nc2cc(Cl)ccc2Cl)c1 [N'-(2,5-Dichloro-phenyl)-N-(3-ethyl-phenyl)-N-methyl-guanidine; hydrochloride]"
6,125,CCc1cccc(N(C)C(N)=Nc2ccccc2Br)c1 [N'-(2-Bromo-phenyl)-N-(3-ethyl-phenyl)-N-methyl-guanidine; hydrochloride]
7,45,CCc1cccc(N(C)C(N)=Nc2cc(C)cc(CC)c2Cl)c1 [N'-(2-Chloro-3-ethyl-5-methyl-phenyl)-N-(3-ethyl-phenyl)-N-methyl-guanidine; hydrochloride]
8,110,"CCc1cccc(N(C)C(N)=Nc2cc(Cl)cc(C(F)(F)F)c2Cl)c1 [N'-(2,5-Dichloro-3-trifluoromethyl-phenyl)-N-(3-ethyl-phenyl)-N-methyl-guanidine; hydrochloride]"
9,3380,"CCc1cccc(N(C)C(N)=Nc2cc(Br)cc(S(C)(=O)=O)c2Br)c1 [N'-(2,5-Dibromo-3-methanesulfonyl-phenyl)-N-(3-ethyl-phenyl)-N-methyl-guanidine; hydrochloride]"
10,13,"CCc1cccc(NC(N)=Nc2cccc(Cl)c2Cl)c1 [N-(2,3-Dichloro-phenyl)-N'-(3-ethyl-phenyl)-guanidine; hydrochloride]"
11,72,CCc1cccc(N(C)C(N)=Nc2ccccc2Cl)c1 [N'-(2-Chloro-phenyl)-N-(3-ethyl-phenyl)-N-methyl-guanidine; hydrochloride]
12,113,"CCc1cccc(N(C)C(N)=Nc2cc(CC)cc(CC)c2F)c1 [N'-(3,5-Diethyl-2-fluoro-phenyl)-N-(3-ethyl-phenyl)-N-methyl-guanidine; hydrochloride]"
13,362,CCc1cccc(N(C)C(N)=Nc2ccccc2C(C)C)c1 [N-(3-Ethyl-phenyl)-N'-(2-isopropyl-phenyl)-N-methyl-guanidine; hydrochloride]
14,12,"CCc1cccc(NC(N)=Nc2cc(Cl)ccc2Cl)c1 [N-(2,5-Dichloro-phenyl)-N'-(3-ethyl-phenyl)-guanidine; hydrochloride]"
15,40,"CCc1cccc(N(C)C(N)=Nc2cc(Br)cc(CC)c2Br)c1 [N'-(2,5-Dibromo-3-ethyl-phenyl)-N-(3-ethyl-phenyl)-N-methyl-guanidine; hydrochloride]"
16,46,CCc1cccc(N(C)C(N)=Nc2ccc(Cl)cc2)c1 [N'-(4-Chloro-phenyl)-N-(3-ethyl-phenyl)-N-methyl-guanidine; hydrochloride]
17,32,"CCc1cccc(NC(N)=Nc2ccc(Cl)c(Cl)c2)c1 [N-(3,4-Dichloro-phenyl)-N'-(3-ethyl-phenyl)-guanidine; hydrochloride]"
18,130,"CCc1cccc(N(C)C(N)=Nc2cc(Cl)cc(SC)c2Cl)c1 [N'-(2,5-Dichloro-3-methylsulfanyl-phenyl)-N-(3-ethyl-phenyl)-N-methyl-guanidine; hydrochloride]"
19,10,CCc1cccc(NC(N)=Nc2cccc(Br)c2)c1 [N-(3-Bromo-phenyl)-N'-(3-ethyl-phenyl)-guanidine; hydrochloride]
20,205,CCc1cccc(N(C)C(N)=Nc2cc(C(F)(F)F)cc(CC)c2Br)c1 [N'-(2-Bromo-3-ethyl-5-trifluoromethyl-phenyl)-N-(3-ethyl-phenyl)-N-methyl-guanidine; hydrochloride]
21,70,"CCc1cccc(NC(N)=Nc2cc(Cl)cc(Cl)c2)c1 [N-(3,5-Dichloro-phenyl)-N'-(3-ethyl-phenyl)-guanidine; hydrochloride]"

row,IC50 [nM],Structure (SMILES)
1,8,"CCc1cc(CC)cc(N=C(N)Nc2cccc(CC)c2)c1 [N-(3,5-Diethyl-phenyl)-N'-(3-ethyl-phenyl)-guanidine; hydrochloride]"
2,115,CCc1cccc(N(C)C(N)=Nc2cc(C(F)(F)F)cc(CC)c2Cl)c1 [N'-(2-Chloro-3-ethyl-5-trifluoromethyl-phenyl)-N-(3-ethyl-phenyl)-N-methyl-guanidine; hydrochloride]
3,299,CCc1cccc(N(C)C(N)=Nc2cc(SC)cc(CC)c2Br)c1
4,224,"CCc1cccc(N(C)C(N)=Nc2cc(Br)cc(C(F)(F)F)c2Br)c1 [N'-(2,5-Dibromo-3-trifluoromethyl-phenyl)-N-(3-ethyl-phenyl)-N-methyl-guanidine; hydrochloride]"
5,39,"CCc1cccc(N(C)C(N)=Nc2ccc(Cl)c(Cl)c2)c1 [N'-(3,4-Dichloro-phenyl)-N-(3-ethyl-phenyl)-N-methyl-guanidine; hydrochloride]"
6,14,"CCc1cccc(NC(N)=Nc2c(Cl)cccc2Cl)c1 [N-(2,6-Dichloro-phenyl)-N'-(3-ethyl-phenyl)-guanidine; hydrochloride]"
7,1950,CCc1cccc(N(C)C(N)=Nc2cc(Br)cc([S+](C)[O-])c2Br)c1 (configuration not stated)
8,381,"CCc1cccc(N(C)C(=N)N(C)c2cc(Br)ccc2Br)c1 [N-(2,5-Dibromo-phenyl)-N'-(3-ethyl-phenyl)-N,N'-dimethyl-guanidine; hydrochloride]"
9,113,"CCc1cccc(N(C)C(N)=Nc2cc(Br)cc(OC(F)(F)F)c2Br)c1 [N'-(2,5-Dibromo-3-trifluoromethoxy-phenyl)-N-(3-ethyl-phenyl)-N-methyl-guanidine; hydrochloride]"
10,200,CCc1cccc(N(C)C(N)=Nc2cc(CC)cc(C(F)(F)F)c2Cl)c1 [N'-(2-Chloro-5-ethyl-3-trifluoromethyl-phenyl)-N-(3-ethyl-phenyl)-N-methyl-guanidine; hydrochloride]
11,27,CCc1cccc(NC(N)=Nc2cccc(Cl)c2)c1 [N-(3-Chloro-phenyl)-N'-(3-ethyl-phenyl)-guanidine; hydrochloride]
12,203,"CCc1cccc(N(C)C(N)=Nc2cc(CC)cc(CC)c2Br)c1 [N'-(2-Bromo-3,5-diethyl-phenyl)-N-(3-ethyl-phenyl)-N-methyl-guanidine; hydrochloride]"
13,164,CCc1cccc(N(C)C(N)=Nc2cccc(SC)c2)c1 [N-(3-Ethyl-phenyl)-N-methyl-N'-(3-methylsulfanyl-phenyl)-guanidine; hydrochloride]
14,180,CCc1cccc(N(C)C(N)=Nc2cc(CC)cc(SC)c2Br)c1 [N'-(2-Bromo-5-ethyl-3-methylsulfanyl-phenyl)-N-(3-ethyl-phenyl)-N-methyl-guanidine; hydrochloride]
15,112,"CCc1cccc(N(C)C(N)=Nc2cc(CC)cc(CC)c2Cl)c1 [N'-(2-Chloro-3,5-diethyl-phenyl)-N-(3-ethyl-phenyl)-N-methyl-guanidine; hydrochloride]"
16,37,"CCc1cccc(NC(N)=Nc2ccc(Cl)cc2Cl)c1 [N-(2,4-Dichloro-phenyl)-N'-(3-ethyl-phenyl)-guanidine; hydrochloride]"
17,19,CCc1cccc(NC(N)=Nc2ccccc2CC)c1 [N-(2-Ethyl-phenyl)-N'-(3-ethyl-phenyl)-guanidine; hydrochloride]
18,21,CCc1cccc(NC(N)=Nc2ccccc2C(C)C)c1 [N-(3-Ethyl-phenyl)-N'-(2-isopropyl-phenyl)-guanidine; hydrochloride]
19,221,CCc1cccc(N(C)C(N)=Nc2cc(CC)cc(C(F)(F)F)c2Br)c1 [N'-(2-Bromo-5-ethyl-3-trifluoromethyl-phenyl)-N-(3-ethyl-phenyl)-N-methyl-guanidine; hydrochloride]
20,178,CCc1cccc(N(C)C(N)=Nc2cc(CC)cc(SC)c2Cl)c1 [N'-(2-Chloro-5-ethyl-3-methylsulfanyl-phenyl)-N-(3-ethyl-phenyl)-N-methyl-guanidine; hydrochloride]
21,11,CCc1cccc(NC(N)=Nc2ccccc2C)c1 [N-(3-Ethyl-phenyl)-N'-o-tolyl-guanidine; hydrochloride]
